Each block holds one molecule with its values, some of them ahead of it.
What was measured:
[1] = biological target: SRSF protein kinase 1 (Homo sapiens, UniProt Q96SB4); experiment: Selectivity interaction (Kinase panel (Z-LYTE Assay)) EUB0001632a SRPK1; details: at 10 µM
[2] = biological target: T1, Serine/threonine-protein kinase LATS2 (Homo sapiens) (UniProt Q9NRM7); experiment: Selectivity interaction (KinomeScan (DiscoverX)) EUB0000666a LATS2; details: at 10 µM
T1 sequence (whole entry): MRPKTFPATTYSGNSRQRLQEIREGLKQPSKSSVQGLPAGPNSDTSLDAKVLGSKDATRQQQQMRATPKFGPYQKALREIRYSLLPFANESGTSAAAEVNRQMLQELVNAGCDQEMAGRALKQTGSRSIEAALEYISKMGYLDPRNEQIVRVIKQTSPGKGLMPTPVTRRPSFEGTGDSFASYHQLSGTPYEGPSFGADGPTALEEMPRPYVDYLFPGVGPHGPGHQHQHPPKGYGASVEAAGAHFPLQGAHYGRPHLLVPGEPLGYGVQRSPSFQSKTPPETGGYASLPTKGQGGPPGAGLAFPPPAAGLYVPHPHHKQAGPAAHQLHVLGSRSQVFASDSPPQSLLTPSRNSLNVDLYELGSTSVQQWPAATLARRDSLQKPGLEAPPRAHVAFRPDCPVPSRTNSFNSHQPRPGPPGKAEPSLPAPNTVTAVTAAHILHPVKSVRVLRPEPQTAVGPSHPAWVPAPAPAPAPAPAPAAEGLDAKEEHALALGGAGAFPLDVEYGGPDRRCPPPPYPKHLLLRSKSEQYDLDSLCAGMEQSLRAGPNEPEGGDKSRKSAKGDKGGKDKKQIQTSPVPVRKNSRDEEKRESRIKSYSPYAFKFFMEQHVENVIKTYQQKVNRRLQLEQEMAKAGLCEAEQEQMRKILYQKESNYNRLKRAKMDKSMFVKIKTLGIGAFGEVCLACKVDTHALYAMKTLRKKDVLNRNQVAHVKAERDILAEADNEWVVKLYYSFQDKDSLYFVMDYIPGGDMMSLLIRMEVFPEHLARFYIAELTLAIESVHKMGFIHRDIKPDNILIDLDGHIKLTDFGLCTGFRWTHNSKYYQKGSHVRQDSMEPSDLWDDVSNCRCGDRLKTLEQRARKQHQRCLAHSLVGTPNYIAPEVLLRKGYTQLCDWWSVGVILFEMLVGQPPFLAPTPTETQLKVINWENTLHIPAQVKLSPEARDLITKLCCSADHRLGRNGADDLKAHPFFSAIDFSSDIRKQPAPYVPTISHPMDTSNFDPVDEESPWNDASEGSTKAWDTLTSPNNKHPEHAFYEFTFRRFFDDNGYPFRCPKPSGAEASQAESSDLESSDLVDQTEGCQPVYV

[3] = biological target: T2, Inhibitor of nuclear factor kappa-B kinase subunit epsilon (Homo sapiens) (UniProt Q14164); experiment: Selectivity interaction (Kinase panel (Invitrogen)) EUB0000639a IKBKE; details: at 200 nM
T2 sequence (whole entry): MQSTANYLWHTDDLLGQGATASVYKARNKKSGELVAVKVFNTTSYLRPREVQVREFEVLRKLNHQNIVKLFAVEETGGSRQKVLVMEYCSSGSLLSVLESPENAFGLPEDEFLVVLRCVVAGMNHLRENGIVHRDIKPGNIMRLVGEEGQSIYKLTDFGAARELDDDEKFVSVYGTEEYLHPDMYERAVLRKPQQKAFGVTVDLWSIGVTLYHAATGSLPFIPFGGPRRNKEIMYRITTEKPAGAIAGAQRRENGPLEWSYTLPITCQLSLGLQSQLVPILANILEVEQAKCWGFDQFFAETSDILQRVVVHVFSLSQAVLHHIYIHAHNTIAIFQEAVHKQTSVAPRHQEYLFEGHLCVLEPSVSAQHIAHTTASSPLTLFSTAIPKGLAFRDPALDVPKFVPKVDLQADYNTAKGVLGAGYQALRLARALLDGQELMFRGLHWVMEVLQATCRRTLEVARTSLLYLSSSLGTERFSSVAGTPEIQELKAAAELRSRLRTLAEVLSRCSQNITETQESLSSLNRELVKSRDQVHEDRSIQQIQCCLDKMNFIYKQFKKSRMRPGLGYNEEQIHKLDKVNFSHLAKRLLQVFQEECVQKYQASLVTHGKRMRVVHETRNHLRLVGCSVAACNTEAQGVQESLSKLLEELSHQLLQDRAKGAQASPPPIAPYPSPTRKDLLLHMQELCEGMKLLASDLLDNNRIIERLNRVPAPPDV

[4] = biological target: T3, Serine/threonine-protein kinase NLK (Homo sapiens) (UniProt Q9UBE8); experiment: Selectivity interaction (KinomeScan (DiscoverX)) EUB0000045b NLK
T3 sequence (whole entry): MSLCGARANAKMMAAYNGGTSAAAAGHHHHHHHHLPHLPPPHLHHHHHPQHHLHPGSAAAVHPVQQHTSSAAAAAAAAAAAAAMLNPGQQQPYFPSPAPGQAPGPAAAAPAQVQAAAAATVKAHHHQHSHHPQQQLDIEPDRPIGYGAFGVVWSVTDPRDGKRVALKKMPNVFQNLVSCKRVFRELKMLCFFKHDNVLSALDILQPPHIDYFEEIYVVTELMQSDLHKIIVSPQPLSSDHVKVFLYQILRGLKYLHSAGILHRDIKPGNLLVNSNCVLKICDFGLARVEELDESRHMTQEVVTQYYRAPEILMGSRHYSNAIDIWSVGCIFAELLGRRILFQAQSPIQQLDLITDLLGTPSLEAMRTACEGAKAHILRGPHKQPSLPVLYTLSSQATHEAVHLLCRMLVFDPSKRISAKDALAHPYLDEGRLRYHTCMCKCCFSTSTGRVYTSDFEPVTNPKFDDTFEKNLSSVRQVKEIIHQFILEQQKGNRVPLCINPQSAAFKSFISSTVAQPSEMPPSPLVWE

Sequence of SRSF protein kinase 1 (Q96SB4 whole entry): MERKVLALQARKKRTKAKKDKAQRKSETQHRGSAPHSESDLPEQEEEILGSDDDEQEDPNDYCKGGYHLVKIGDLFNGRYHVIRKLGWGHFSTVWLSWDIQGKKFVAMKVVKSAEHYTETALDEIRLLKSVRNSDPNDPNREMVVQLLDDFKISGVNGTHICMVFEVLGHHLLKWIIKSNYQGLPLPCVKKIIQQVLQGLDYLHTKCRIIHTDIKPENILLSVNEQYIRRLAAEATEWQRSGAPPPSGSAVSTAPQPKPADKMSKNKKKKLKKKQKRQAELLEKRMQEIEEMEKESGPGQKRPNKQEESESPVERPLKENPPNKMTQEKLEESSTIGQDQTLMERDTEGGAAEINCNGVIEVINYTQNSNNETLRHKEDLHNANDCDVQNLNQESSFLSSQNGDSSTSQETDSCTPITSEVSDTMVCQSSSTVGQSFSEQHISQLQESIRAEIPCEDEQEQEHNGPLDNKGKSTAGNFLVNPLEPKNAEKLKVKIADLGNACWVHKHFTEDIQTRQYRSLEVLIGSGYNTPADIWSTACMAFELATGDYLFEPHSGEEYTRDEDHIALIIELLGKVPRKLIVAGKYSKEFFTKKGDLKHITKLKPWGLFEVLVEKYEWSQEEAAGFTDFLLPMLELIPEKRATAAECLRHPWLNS

% of control [1]: 0.97%
Compound: Cn1cc(-n2cnc3c(NCc4nc5cc(Cl)c(Cl)cc5[nH]4)nc(N4CCOCC4)nc32)cn1

Compound: O=C(NOC[C@H](O)CO)c1ccc(F)c(F)c1Nc1ccc(I)cc1F
% of control [2]: 74%

% of inhibition [3]: 2.32%
Compound: CC[C@@H]1[C@H](F)C(=O)N[C@@H]1COc1nccc2cc(C(N)=O)c(OC)cc12 [ZIMLOVISERTIB]

Compound: C=CC(=O)Nc1cc(-n2c(=O)ccc3cnc4ccc(-c5ccc(NS(C)(=O)=O)cc5)cc4c32)ccc1C
% of control ([4]; at 1 µM): 100% | % of control ([4]; at 10 µM): 100%

Reference: ChEMBL document CHEMBL5465560, “Selectivity Literature for EUbOPEN Chemogenomic Library” (2024)
